According to patent US9598365B2, “Method for synthesizing cycloalkanyl[b]indoles, cycloalkanyl[b]benzofurans, cycloalkanyl[b]benzothiophenes, compounds and methods of use” (Trustees of Dartmouth College, priority 2012, dated 2017):
Where “and” joins values, the source holds several entries; their conditions need not be identical. Equal entries are not always repeated. Values belong to the molecule of their own block, whether it stands above or below them.

What was measured:
[1] = tested on: Wnt Pathway; experiment: Wnt pathway modulatory activity, Osteo bCat; format: cell-based
Description: (§1) Selected compounds of this invention were screened for K-Ras Wnt synthetic lethal, anti-angiogenic activity, Wnt pathway modulatory activity, insulin and GLP-1 secretion modulatory activity, GPR119 receptor agonist activity, mGlu2R antagonist activity, CGRP receptor antagonist activity, Apelin receptor agonist activity and hexokinase 2 inhibitory activity using the PD^2 and TD^2 Screening Panel (Eli Lilly & Company). See Lee, et al. (2011) J. Biomol. Screen. 16:588-602.

[2] = tested on: RKO; experiment: K-Ras Wnt synthetic lethal, RKO KrasSL; format: cell-based; conditions: Homo sapiens, average of three independent experiments, read-out: RKO KrasSL % Inhibit
Description: as §1

[3] = tested on: Co1o320; experiment: K-Ras Wnt synthetic lethal, Co1o320 KrasSL; format: cell-based; conditions: read-out: Co1o320 KrasSL % Inhibit
Description: as §1

[4] = tested on: Insulin Secretion; experiment: Insulin secretion, Secretion Hi Gluc; format: cell-based
Description: as §1

[5] = target: T1, hApelin (Homo sapiens, UniProt P35414); experiment: Apelin receptor agonist, hApelin agonism; format: cell-based; conditions: @ 30 μM
T1 sequence (P35414 1-380): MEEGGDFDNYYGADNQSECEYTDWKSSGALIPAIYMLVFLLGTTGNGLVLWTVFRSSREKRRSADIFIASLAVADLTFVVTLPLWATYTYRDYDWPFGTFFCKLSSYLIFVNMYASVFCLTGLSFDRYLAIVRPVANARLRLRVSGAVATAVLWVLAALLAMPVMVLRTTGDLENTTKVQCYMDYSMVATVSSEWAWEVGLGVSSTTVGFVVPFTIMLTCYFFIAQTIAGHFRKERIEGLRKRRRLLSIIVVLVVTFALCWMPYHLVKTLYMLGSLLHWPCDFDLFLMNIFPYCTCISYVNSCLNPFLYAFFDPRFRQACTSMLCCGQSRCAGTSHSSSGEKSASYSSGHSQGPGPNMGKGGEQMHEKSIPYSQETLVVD
Description: as §1

[6] = tested on: mSTC-1; experiment: mSTC-1 GLP-1 secretion; format: cell-based; conditions: concentration response curve, read-out: Primary CRC (EC50, μM) mSTC
Protocol: (§2) In light of the above results, additional compounds (Table 7) were prepared and phenotypic assays were carried out using hNCI-H716 and mSTC-1 cell lines to monitor GLP-1 secretion (single point (SP) and concentration response curves (CRC)) (Table 8), as well as a secondary assay with pituitary cells (Table 9).

[7] = target: hCGRP1 (Homo sapiens, UniProt O60894+Q16602); experiment: CGRP receptor antagonist, hCGRP1 antagonism; format: cell-based
Description: as §1

[8] = target: hMGLUR2 (Homo sapiens, UniProt Q14416); experiment: mGlu2R antagonist, hMGLUR2; format: cell-based
Description: as §1

[9] = target: T2, hGPR119 (Homo sapiens, UniProt Q8TDV5); experiment: GPR119 receptor agonist, hGPR119 agonism; format: cell-based; conditions: @ 10 μM
T2 sequence (Q8TDV5 1-335): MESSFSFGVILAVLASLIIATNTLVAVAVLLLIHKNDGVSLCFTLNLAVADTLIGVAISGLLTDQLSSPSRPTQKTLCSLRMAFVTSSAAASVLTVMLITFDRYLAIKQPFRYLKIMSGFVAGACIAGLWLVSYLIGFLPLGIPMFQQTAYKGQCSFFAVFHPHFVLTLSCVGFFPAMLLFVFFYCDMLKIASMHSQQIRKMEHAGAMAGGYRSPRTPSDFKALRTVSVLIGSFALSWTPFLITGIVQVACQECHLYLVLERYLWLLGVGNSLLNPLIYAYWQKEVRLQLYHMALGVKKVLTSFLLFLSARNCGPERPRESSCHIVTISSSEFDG
Description: as §1

[10] = tested on: HCT116; experiment: K-Ras Wnt synthetic lethal, HCT116 KrasSL; format: cell-based; conditions: Homo sapiens, HCT-116, read-out: HCT116 KrasSL % Inhibit
Description: as §1

[11] = tested on: Pituitary Cells; experiment: Secondary assay, pituitary cells growth hormone secretion; format: cell-based; conditions: @ 3.3 μM
Protocol: as §2

[12] = tested on: Angio Tube Area; experiment: Anti-angiogenic activity, Angio Tube Area; format: cell-based; conditions: read-out: Angio Tube Area % Inhibit
Description: as §1

[13] = tested on: SNU-C1; experiment: K-Ras Wnt synthetic lethal, SNU-C1 KrasSL; format: cell-based; conditions: Homo sapiens, read-out: SNU-C1 KrasSL % Inhibit
Description: as §1

[14] = target: T3, hHK2 (Homo sapiens, UniProt P52789); experiment: Hexokinase 2 inhibitor, hHK2 ADP-FP; format: biochemical
T3 sequence (P52789 1-917): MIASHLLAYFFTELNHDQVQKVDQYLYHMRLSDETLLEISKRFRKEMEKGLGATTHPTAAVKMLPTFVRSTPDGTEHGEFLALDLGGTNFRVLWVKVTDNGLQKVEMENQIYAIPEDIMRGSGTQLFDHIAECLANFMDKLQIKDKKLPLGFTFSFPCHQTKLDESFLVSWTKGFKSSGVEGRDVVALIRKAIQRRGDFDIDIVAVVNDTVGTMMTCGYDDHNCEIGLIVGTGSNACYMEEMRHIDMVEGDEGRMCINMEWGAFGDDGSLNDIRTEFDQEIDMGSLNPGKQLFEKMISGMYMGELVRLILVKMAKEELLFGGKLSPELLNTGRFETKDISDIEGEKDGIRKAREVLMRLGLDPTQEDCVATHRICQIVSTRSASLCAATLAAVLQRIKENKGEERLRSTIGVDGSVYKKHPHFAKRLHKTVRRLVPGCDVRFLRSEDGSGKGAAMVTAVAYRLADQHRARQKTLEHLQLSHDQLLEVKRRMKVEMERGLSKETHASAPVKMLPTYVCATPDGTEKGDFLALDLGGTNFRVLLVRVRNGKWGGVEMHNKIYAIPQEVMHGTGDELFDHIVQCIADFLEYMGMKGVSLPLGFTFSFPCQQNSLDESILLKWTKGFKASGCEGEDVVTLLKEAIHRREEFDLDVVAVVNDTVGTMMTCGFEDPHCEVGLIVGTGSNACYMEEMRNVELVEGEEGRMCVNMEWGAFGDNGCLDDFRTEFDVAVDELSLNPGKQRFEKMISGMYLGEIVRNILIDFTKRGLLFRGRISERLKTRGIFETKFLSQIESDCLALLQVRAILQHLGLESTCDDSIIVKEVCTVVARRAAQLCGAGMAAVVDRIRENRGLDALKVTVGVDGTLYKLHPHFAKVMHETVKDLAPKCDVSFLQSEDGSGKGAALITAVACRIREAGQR
Description: as §1

[15] = tested on: hNCI-H716; experiment: hNCI-H716 GLP-1 secretion; format: cell-based
Description: as §1, §2

[16] = tested on: GIP; experiment: Plasma GIP response to oral compound in mice; format: in vivo, Mice (male C57BL/6); conditions: oral 100 mg/kg, plasma 30 minutes post-dose
Protocol: (§3) Mice (male C57BL/6, 8-10 weeks of age) were fasted overnight by being placed in a clean cage without food. The next day, all mice were weighed and assigned to groups of similar body weights. Test compounds were formulated in 1% HEC, 0.25% TWEEN 80, 0.05% antifoam (vehicle control). Compounds 11ls and llu were orally dosed (100 mg/kg) and cardiac sticks were done on CO2 euthanized mice at 30 minutes post-dose. Blood (500+μL whole blood) from the cardiac stick was placed in chilled EDTA-plasma tubes with inhibitors, DPP4 inhibitor (5 μL/500 μL blood) and aprotinin (bovine lung, […]/500 μL blood), and stored on ice. Plasma was separated by centrifugation and aliquoted for compound exposure to total GIP and GLP-1 (X-36 amide). Plates for compound exposure were analyzed for absorption, distribution, metabolism, and excretion, while conventional kits were used for GLP-1 (x-36) amide (Mesoscale) and GIP (Millipore) analyses.

[17] = tested on: hNCI-H716; experiment: hNCI basal LDH secretion; format: cell-based; conditions: read-out: Primary CRC (EC50, μM) hNCI Basal
Protocol: as §2

[18] = tested on: GLP-1 (X-36 amide); experiment: Plasma GLP-1 response to oral compound in mice; format: in vivo, Mice (male C57BL/6); conditions: oral 100 mg/kg, plasma 30 minutes post-dose
Protocol: as §3

[19] = Plasma compound exposure after oral dosing in mice; format: in vivo, Mice (male C57BL/6); conditions: oral 100 mg/kg, 30 minutes post-dose
Protocol: as §3

hMGLUR2, sequence (Q14416 19-872): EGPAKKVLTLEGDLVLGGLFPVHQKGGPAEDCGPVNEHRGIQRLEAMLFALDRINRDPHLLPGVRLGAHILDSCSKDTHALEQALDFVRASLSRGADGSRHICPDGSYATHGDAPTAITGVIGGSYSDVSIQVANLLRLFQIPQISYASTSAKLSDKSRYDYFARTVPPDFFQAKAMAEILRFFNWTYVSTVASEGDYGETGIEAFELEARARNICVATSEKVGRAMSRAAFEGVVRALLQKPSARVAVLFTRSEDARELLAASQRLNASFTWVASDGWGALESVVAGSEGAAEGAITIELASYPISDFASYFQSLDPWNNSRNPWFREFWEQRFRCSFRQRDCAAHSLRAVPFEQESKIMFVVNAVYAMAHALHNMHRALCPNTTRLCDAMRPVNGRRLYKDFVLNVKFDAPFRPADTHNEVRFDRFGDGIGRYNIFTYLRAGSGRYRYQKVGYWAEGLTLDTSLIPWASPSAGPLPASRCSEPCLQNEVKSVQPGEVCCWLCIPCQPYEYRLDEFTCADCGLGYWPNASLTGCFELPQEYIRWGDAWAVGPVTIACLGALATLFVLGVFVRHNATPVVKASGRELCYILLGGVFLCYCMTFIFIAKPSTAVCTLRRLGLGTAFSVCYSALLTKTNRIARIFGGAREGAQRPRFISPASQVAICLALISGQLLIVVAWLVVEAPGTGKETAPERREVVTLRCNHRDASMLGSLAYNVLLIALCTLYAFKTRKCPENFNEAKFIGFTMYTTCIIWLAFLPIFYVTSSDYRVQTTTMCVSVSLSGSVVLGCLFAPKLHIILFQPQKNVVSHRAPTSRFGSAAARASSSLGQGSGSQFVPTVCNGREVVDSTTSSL
hCGRP1, sequence (Q16602 23-461): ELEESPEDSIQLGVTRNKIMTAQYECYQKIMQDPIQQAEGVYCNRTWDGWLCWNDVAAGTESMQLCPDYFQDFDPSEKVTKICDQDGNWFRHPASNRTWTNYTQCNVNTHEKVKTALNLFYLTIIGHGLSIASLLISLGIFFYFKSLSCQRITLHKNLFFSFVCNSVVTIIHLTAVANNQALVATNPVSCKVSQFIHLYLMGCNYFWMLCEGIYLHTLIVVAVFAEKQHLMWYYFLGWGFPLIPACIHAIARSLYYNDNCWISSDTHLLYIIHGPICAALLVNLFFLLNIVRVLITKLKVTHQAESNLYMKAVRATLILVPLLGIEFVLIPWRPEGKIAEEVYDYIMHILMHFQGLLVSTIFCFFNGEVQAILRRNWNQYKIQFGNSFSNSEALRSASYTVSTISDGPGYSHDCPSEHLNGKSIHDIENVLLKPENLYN
hCGRP1, sequence (O60894 27-148 partner): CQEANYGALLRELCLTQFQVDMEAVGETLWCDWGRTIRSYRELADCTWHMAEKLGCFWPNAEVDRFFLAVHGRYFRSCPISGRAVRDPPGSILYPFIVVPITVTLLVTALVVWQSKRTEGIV

hApelin agonism % Stimulation [5]: −52.8%
EC50 [6]: 2.4 µM and 4.1 µM and 2.2 µM
inhibition at 30 µM [7]: 67.7%
inhibition at 50 µM [8]: -19.7%
hGPR119 agonism % Stimulation [9]: −2.3%
inhibition at 20 µM [14]: 3.2%
EC50 ([15]; GLP-1 secretion, concentration response curve, read-out: Primary CRC (EC50, μM) hNCI): 29.1 µM and 17.6 µM and 16.4 µM
EC50 ([15]; average of three independent experiments, read-out: hNCI GLP-1 Secretion EC50): 29.1 µM
EC50 ([15]; secretion and/or production of GLP-1, read-out: EC50 values (Table 6)): 29 µM
Compound: CC1(C)c2c([nH]c3ccc(Br)cc23)C2C=CC1C2 (stereo not drawn) [Compound 11t]
Osteo bCat % Stimulation ([1]; @ 2 μM): 1.8%
Osteo bCat % Stimulation ([1]; @ 10 μM): 5.5%
inhibition at 0.2 µM ([2]; @ 0.2 μM): -5.8%
inhibition at 2 µM ([2]; @ 2 μM): 17.6%
inhibition at 20 µM ([2]; @ 20 μM): 102%
inhibition at 0.2 µM ([3]; @ 0.2 μM): -6.6%
inhibition at 2 µM ([3]; @ 2 μM): 23.1%
inhibition at 20 µM ([3]; @ 20 μM): 152%
Secretion Hi Gluc % Stimulation ([4]; @ 2 μM): 0.1%
Secretion Hi Gluc % Stimulation ([4]; @ 10 μM): 19.1%
inhibition at 0.2 µM ([10]; @ 0.2 μM): 5.3%
inhibition at 2 µM ([10]; @ 2 μM): -11.5%
inhibition at 20 µM ([10]; @ 20 μM): 104%
Pituitary Cells (Growth Hormone Secretion, % Stimulation) [11]: −12.6% and −7.1%
inhibition at 2 µM ([12]; @ 2 μM): 8%
inhibition at 10 µM ([12]; @ 10 μM): 38%
inhibition at 0.2 µM ([13]; @ 0.2 μM): -1%
inhibition at 2 µM ([13]; @ 2 μM): -19.1%
inhibition at 20 µM ([13]; @ 20 μM): 107%
activation at 2 µM ([15]; 2 μM, GLP-1 secretion, single point, read-out: Primary SP hNCI (% Stim.)): 0%
activation at 20 µM ([15]; 20 μM, GLP-1 secretion, single point, read-out: Primary SP hNCI (% Stim.)): 35.2%
hNCI GLP-1 Secretion % Stimulation ([15]; @ 2 μM): 0%
hNCI GLP-1 Secretion % Stimulation ([15]; @ 20 μM): 35.2%

EC50 [17]: 35.8 µM
EC50 [6]: 2 µM and 3.2 µM
mean (±standard deviation) plasma levels [19]: 201.6 ± 37.24 ng/mL
Compound: CC1(C)c2c([nH]c3ccc(I)cc23)C2C=CC1C2 (stereo not drawn) [Compound 11u]
Avg. GIP (pg/mL) ±SEM [16]: 26.23 ± 10.35 pg/mL
Avg. GLP-1 (pg/mL) ±SEM [18]: 7.66 ± 0.89 pg/mL
Primary SP hNCI (% Stim.) ([15]; 2 μM, GLP-1 secretion, single point): 0%
Primary SP hNCI (% Stim.) ([15]; 20 μM, GLP-1 secretion, single point): 57%
